Source: patent US11925646B2, “Agent for treating or preventing cancer, and combination of RF pathway inhibitor and MEK inhibitor for treating or preventing cancer” (NATIONAL UNIVERSITY CORPORATION HOKKAIDO UNIVERSITY, priority 2021, dated 2024)

Experiments:
[1] = test system: PANC-1; experiment: MTS assay, relative survival rate with roseoflavin; format: cell-based, human; conditions: RoF 0.1 to 10 μM, 24, 48 or 72 hours, ratio to solvent control at 72 hours
Experimental: (§1) Human pancreatic cancer cells were treated with roseoflavin (RoF), and a relative survival rate was calculated assuming that mitochondrial respiratory chain activity corresponded to the survival rate.
(§2) Human pancreatic cancer cell lines, MIAPaCa-2, PANC-1, and Capan-1 were used for performing MTS assay with RoF. All the cell lines were obtained from ATCC. Each of the cell lines was cultured with the following medium in the presence of 5% CO2 at 37° C. • MIAPaCa-2: Dulbecco's Modified Eagle's Medium (Nakalai Tesque) supplemented with 10% fetal bovine serum (Gibco) and 1% penicillin-streptomycin (Nakalai Tesque) • PANC-1: RPMI 1640 medium (Nakalai Tesque) supplemented with 10% fetal bovine serum (Gibco) and 1% penicillin-streptomycin (Nakalai Tesque) • Capan-1: IMDM medium (Iscove's Modified Dulbecco's Medium) (Nakalai Tesque) supplemented with 20% fetal bovine serum (Gibco) and 1% penicillin-streptomycin (Nakalai Tesque)
(§3) Roseoflavin (RoF) was prepared to 0 μM (DMSO alone), 0.1 mM, 0.3 mM, 1 mM, 3 mM, and 10 mM, and the resultants were respectively diluted with the medium by 1000 times to obtain agent solutions (RoF final concentration: 0 μM, 0.1 μM, 0.3 μM, 1 μM, 3 μM and […]).
(§4) In a 96 well plate, MIAPaCa-2 was seeded at 500 cells/well, PANC-1 was seeded at 2,000 cells/well, and Capan-1 was seeded at 10,000 cells/well (in 100 μL of the medium). After these were cultured for 1 day, the RoF agent solution at each concentration was added to the cells in the 96 well plate in an amount of 10 μL each (final concentration of DMSO: 0.1%). Each combination was tested in 3 wells. After the addition of the agent solution, the resultant was cultured in the presence of 5% CO2 at 37° C. for 24, 48 or 72 hours, and a cell survival rate was measured with MTS Assay (Cell Titer 96®, Promega). The survival rate was expressed as a ratio to that of the control (solvent alone) cultured for 72 hours.

[2] = test system: MIAPaCa-2; experiment: MTS assay, relative survival rate with roseoflavin; format: cell-based, human; conditions: RoF 0.1 to 10 μM, 24, 48 or 72 hours, ratio to solvent control at 72 hours
Experimental: as §1, §2, §3, §4

[3] = test system: Capan-1; experiment: MTS assay, relative survival rate with roseoflavin; format: cell-based, human; conditions: RoF 0.1 to 10 μM, 24, 48 or 72 hours, ratio to solvent control at 72 hours
Experimental: as §1, §2, §3, §4

[4] = test system: Capan-1; experiment: Spheroid formation in three-dimensional methylcellulose culture; format: cell-based, human; conditions: 10 μM RoF, 1 nM Tr, day 21 of culture
Experimental: (§5) The pancreatic cancer cell lines (AsPC-1 and Capan-1) having 4-hit mutation were three-dimensionally cultured in methylcellulose-containing media.
(§6) In a 24 well plate (upper layer: 1.8% methylcellulose, lower layer: 0.48% agarose), AsPC-1 was seeded at 5×10^3 cells/well (in 100 μL of the medium). After culturing for 1 day (day 1), DMSO (control), 10 μM roseoflavin (RoF), 1 nM trametinib (Tr), or 10 μM RoF+1 nM Tr was respectively added to the 24 well plate (final concentration of DMSO: 0.1%). After adding the agent solution, the resultant was cultured in the presence of 5% CO2 at 37° C., and a culture fluid was added on day 14. The resultant was further cultured, and each group was photographed on day 21 to measure the size and the number of spheroids. It is noted that the following media were used for culturing the respective cell lines: • AsPC-1: RPMI 1640 medium (Nakalai Tesque) supplemented with 10% fetal bovine serum (Gibco) and 1% penicillin-streptomycin (Nakalai Tesque) • Capan-1: IMDM medium (Iscove's Modified Dulbecco's Medium) (Nakalai Tesque) supplemented with 20% fetal bovine serum (Gibco) and 1% penicillin-streptomycin (Nakalai Tesque)

[5] = test system: AsPC-1; experiment: as above; format: cell-based, human; conditions: 10 μM RoF, 1 nM Tr, day 21 of culture
Experimental: as §5, §6

[6] = test system: RF pathway; experiment: Liquid chromatography mass spectrometry of RoF, RF, FMN and FAD within the cells; format: cell-based, human; conditions: MIAPaCa-2, PANC-1 and Capan-1; 10 μM RoF, 48 hours; vs DMSO control
[7] = test system: 4-hit flies (non-GFP); experiment: Survival rate of 4-hit flies raised on agent diet; format: in vivo, Drosophila; conditions: in diet: 0.5 μM trametinib, 50 μM roseoflavin; raised at 25° C. for 13 days
Experimental: Roseoflavin and trametinib were dissolved in DMSO (Sigma) to be stored at −20° C.
Agar (Wako), brewers' yeast (MPBio), yeast extract (Sigma Aldrich), Bacto Casitone (BD), sucrose (Wako), glucose (Wako), MgCl2 (Wako), CaCl2) (Wako), propionic acid (Wako), Mold Inhibitor (10% methyl-4-hydroxy benzoate in 95% ethanol: Wako) were dissolved in ultrapure water to produce a standard diet. While this was being warmed at 50° C., an agent (trametinib alone, or a combination of roseoflavin and trametinib) dissolved in DMSO was added thereto to be mixed, and the resultant was cooled to prepare an agent diet. Final concentrations in the diet of the respective compounds were set to 0.5 μM for trametinib, and 50 μM for roseoflavin.
The UAS-RasG12D, UAS-p53 shRNA, UAS-CycE, UAS-Med shRNA fly produced in Example 1 was crossbred with a Ser-gal4 fly (Bloomington Drosophila Stock Center), and the parent flies were caused to lay eggs for 2 days on the standard diet or the agent diet, and thus, 20 to 50 eggs per vial, of Ser-gal4; UAS-RasG12D, UAS-p53 shRNA, UAS-CycE, UAS-Med shRNA 4-hit flies (non-GFP) were obtained. These eggs were raised at 25° C. for 13 days, and survival rate of the 4-hit flies (non-GFP) raised on each diet was calculated by dividing the number of eclosed individuals by the total number of pupae.

Row | SMILES | relative survival rate (mitochondrial respiratory chain activity) [1] | relative survival rate (mitochondrial respiratory chain activity) [2] | relative survival rate (mitochondrial respiratory chain activity) [3] | number of spheroids of 0.1 mm or smaller [4] | spheroid formation, spheroids of 0.1 to 0.2 mm and larger than 0.2 mm [4] | spheroid formation, spheroids of 0.1 to 0.2 mm and larger than 0.2 mm [5] | amount of FAD (flavin adenine dinucleotide) within the cells [6] | amount of FMN (flavin mononucleotide) within the cells [6] | amount of RF (riboflavin) within the cells [6] | improvement of survival rate of 4-hit flies (eclosed individuals / total pupae) [7]
1 | Cc1cc2nc3c(=O)[nH]c(=O)nc-3n(C[C@H](O)[C@H](O)[C@H](O)CO)c2cc1N(C)C [roseoflavin] | deteriorated mitochondrial respiratory chain activity in a dose dependent manner to decrease the relative survival rate | deteriorated mitochondrial respiratory chain activity in a dose dependent manner to decrease the relative survival rate | deteriorated mitochondrial respiratory chain activity in a dose dependent manner to decrease the relative survival rate | increased | spheroid formation was suppressed | spheroid formation was suppressed | smaller than those in the control | smaller than those in the control | smaller than those in the control | 
2 | CC(=O)Nc1cccc(-n2c(=O)n(C3CC3)c(=O)c3c(Nc4ccc(I)cc4F)n(C)c(=O)c(C)c32)c1 [trametinib] |  |  |  |  |  |  |  |  |  | about 10%
